Experimental data: publication PMC5887109, “Unravelling the Molecular Determinants of Bee Sensitivity to Neonicotinoid Insecticides” (Current Biology, 2018)

What was measured:
[1] = tested on: Bombus terrestris; test: Acute oral insecticide bioassay of bumble bees, with or without PBO; details: for increase in the sensitivity of bumble bees after treatment with PBO: oral bioassay, PBO pretreatment; for LD50: 48 hours after application
Experimental: Acute contact insecticide assays were performed on female A. mellifera following standard methods OECD 2013 [30]. Bioassays of B. terrestris were based on the OECD guidelines developed for honeybees but with bees assayed in individual Nicot cages. Bees were starved of sucrose solution for up to 2 hr to encourage feeding during the experiment. […] Controls were fed a solution of sucrose containing a concentration of acetone matching that of the highest treatment concentration. After 4-6 hr the syringes were assessed to see if bees had consumed the insecticide-sucrose solution. Those that had not consumed all of the solution were excluded from the experiment. Mortality was assessed 48 hr after feeding and lethal concentrations (LC50 values) were calculated by probit analysis using Genstat version 16 (VSN International). For synergist bioassays, B. terrestris or A. mellifera workers were first treated with 20 μg of piperonyl butoxide or 1 μg of aminobenzotriazole applied to the dorsal thorax. Synergist bioassays included an additional control group treated only with the synergist. 1 hr after synergist application, bees were then treated with the appropriate insecticide dosage as above.

[2] = target: CYP9Q3 (Apis mellifera, UniProt A0A7M7LMV1); test: in vitro; details: for metabolism by the recombinant P450 (in words): hydroxylation (thiacloprid, imidacloprid) or N-desmethylation (acetamiprid)
CYP9Q3, sequence (A0A7M7LMV1 entry or part of it, one chain of several): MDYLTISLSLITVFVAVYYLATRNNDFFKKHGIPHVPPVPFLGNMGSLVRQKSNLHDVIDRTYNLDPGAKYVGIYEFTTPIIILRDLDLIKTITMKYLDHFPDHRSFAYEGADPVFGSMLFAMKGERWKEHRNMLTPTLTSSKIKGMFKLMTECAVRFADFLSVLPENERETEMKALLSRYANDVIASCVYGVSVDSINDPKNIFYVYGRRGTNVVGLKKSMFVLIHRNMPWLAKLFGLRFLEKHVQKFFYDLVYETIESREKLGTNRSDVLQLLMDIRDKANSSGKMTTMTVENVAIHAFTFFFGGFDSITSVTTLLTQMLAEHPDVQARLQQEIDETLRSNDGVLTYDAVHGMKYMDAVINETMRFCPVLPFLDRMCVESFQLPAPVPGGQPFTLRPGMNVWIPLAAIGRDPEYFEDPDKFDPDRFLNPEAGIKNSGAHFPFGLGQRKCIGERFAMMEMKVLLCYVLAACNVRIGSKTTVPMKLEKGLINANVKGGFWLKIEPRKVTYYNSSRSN
Excerpt: (§1) All bee P450 (see Table S3 for accession numbers) and house fly NADPH-dependent cytochrome P450 reductase (CPR) (GenBank accession number Q07994) genes were obtained by gene synthesis (Geneart, CA, USA) and inserted into the pDEST8 expression vector (Invitrogen). Codon optimization of all bee genes was used to optimize expression in lepidopteran cell lines. The PFastbac1 vector with no inserted DNA was used to produce a control virus. The recombinant baculovirus DNA was constructed and transfected into Trichoplusia ni (High five cells, Thermo Fisher) using the Bac-to-Bac baculovirus expression system (Invitrogen) according to the manufacturer’s instructions. The titer of the recombinant virus was determined following protocols of the supplier. High Five cells grown to a density of 2 × 10^6 cells ml^-1 were co-infected with recombinant baculoviruses containing each bee P450 and CPR with a range of MOI (multiplicity of infection) ratios to identify the optimal conditions. Control cells were co-infected with the baculovirus containing vector with no insert (ctrl-virus) and the recombinant baculovirus expressing CPR using the same MOI ratios. Ferric citrate and δ-aminolevulinic acid hydrochloride were added to a final concentration of 0.1 mM at the time of infection and 24 h after infection to compensate the low levels of endogenous heme in the insect cells. After 48 h, cells were harvested, washed with PBS, and microsomes of the membrane fraction prepared according to standard procedures and stored at −80°C [31]. Briefly, pellets were homogenized for 30 s in 0.1M Na/K-phosphate buffer, pH 7.4 containing 1mM EDTA and DTT and 200mM sucrose using a Fastprep (MP Biomedicals), filtered through miracloth and centrifuging for 10 min at 680 g at 4°C. The supernatant was then centrifuged for 1 h at 100,000 g at 4°C, with the pellet subsequently resuspended in 0.1M Na/K-phosphate buffer, pH 7.6 containing 1mM EDTA and DTT and 10% glycerol using a Dounce tissue grinder. P450 expression and functionality was estimated by measuring CO-difference spectra in reduced samples using a Specord 200 Plus Spectrophotometer (Analytik Jena) and scanning from 500 nm to 400 nm. The protein content of samples was determined using Bradford reagent (Sigma) and bovine serum albumin (BSA) as a reference.
(§2) The total assay volume was 200 μL using three replicates for each data point. Microsomes incubated without NADPH served as a control. The assay was stopped by the addition of ice-cold acetonitrile (to 80% final concentration), centrifuged for 10 min at 3000 g and the supernatant subsequently analyzed by tandem mass spectrometry as described previously. For the chromatography on a Waters Acquity HSS T3 column (2.1x50mm, 1.8μm), acetonitrile/water/0.1% formic acid was used as the eluent in gradient mode. […] The peak integrals were calibrated externally against a standard calibration curve. […] Substrate turnover from two independent reactions were plotted versus controls and Michaelis-Menten kinetics determined using GraphPad Prism version 7 (GraphPad Software, CA, USA).

[3] = target: T1, CYP9Q2 (Apis mellifera, UniProt A0A7M7R6F2); test: in vitro; details: for metabolism by the recombinant P450 (in words): hydroxylation (thiacloprid, imidacloprid) or N-desmethylation (acetamiprid)
T1 sequence (A0A7M7R6F2 1-532): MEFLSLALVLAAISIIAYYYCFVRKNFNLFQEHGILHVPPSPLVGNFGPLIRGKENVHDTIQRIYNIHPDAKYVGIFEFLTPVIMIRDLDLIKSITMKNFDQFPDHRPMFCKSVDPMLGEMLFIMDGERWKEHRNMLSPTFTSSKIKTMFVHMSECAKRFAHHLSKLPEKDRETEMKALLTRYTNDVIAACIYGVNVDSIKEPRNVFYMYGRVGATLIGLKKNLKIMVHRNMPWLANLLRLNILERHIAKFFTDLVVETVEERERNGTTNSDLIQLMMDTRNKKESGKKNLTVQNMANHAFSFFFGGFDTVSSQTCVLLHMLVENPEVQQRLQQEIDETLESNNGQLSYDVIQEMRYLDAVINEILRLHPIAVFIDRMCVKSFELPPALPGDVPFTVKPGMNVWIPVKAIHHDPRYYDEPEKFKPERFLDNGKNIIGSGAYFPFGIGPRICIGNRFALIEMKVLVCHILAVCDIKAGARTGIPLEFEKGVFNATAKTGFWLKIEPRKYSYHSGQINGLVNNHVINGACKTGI
T1 sequence (Q07994 1-671 partner): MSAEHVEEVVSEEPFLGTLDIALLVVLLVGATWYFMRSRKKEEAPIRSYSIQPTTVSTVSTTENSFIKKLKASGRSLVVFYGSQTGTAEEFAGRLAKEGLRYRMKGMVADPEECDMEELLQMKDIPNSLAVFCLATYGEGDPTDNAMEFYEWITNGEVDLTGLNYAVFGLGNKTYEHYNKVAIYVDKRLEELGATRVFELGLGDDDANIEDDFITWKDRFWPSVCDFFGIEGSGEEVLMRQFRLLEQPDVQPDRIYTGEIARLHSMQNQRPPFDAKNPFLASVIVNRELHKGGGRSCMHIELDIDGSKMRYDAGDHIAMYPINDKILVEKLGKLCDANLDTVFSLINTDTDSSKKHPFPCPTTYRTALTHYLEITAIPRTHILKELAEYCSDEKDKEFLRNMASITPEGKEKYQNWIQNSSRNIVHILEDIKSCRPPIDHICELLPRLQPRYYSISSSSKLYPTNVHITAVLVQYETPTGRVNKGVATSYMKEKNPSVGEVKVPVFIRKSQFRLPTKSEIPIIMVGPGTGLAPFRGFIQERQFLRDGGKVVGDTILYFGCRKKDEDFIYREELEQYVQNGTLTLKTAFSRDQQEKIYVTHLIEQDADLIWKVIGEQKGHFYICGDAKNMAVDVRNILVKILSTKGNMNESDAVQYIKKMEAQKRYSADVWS
Excerpt: as §1, §2

[4] = target: CYP9Q1 (Apis mellifera, UniProt A0A7M7GTV9); test: in vitro; details: for metabolism by the recombinant P450 (in words): hydroxylation (thiacloprid, imidacloprid) or N-desmethylation (acetamiprid)
CYP9Q1, sequence (A0A7M7GTV9 entry or part of it, one chain of several): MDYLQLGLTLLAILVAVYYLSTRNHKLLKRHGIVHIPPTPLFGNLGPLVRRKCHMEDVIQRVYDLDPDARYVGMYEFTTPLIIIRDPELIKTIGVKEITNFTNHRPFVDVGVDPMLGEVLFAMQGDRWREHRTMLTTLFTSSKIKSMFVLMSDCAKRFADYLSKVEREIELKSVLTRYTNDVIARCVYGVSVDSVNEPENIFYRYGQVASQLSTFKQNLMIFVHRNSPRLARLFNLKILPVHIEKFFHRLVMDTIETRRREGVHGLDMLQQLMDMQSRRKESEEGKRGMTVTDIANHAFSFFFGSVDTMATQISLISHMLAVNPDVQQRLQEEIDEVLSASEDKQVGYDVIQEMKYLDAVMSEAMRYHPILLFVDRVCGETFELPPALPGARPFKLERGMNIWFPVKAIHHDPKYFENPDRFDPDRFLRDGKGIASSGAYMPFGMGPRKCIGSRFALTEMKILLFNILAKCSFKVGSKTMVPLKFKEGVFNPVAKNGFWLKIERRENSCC
Excerpt: as §1, §2

[5] = apparent value, mean ± SD (n=3), decimal commas

Row | SMILES | increase in the sensitivity of bumble bees after treatment with PBO [1] | Synergism Ratio ([1]; oral, PBO versus no synergist) | LD50 ([1]; oral, no synergist) [μg/bee] | LD50 ([1]; oral, synergist PBO) [μg/bee] | metabolism by the recombinant P450 (in words) [2] | metabolism by the recombinant P450 (in words) [3] | metabolism by the recombinant P450 (in words) [4] | Km at 2 h ([2]; Apis mellifera) [µM] | Vmax, thiacloprid hydroxylation [2, 5] | Km at 2 h ([3]; Apis mellifera) [µM] | Vmax, thiacloprid hydroxylation [3, 5] | Km at 2 h ([4]; Apis mellifera) [µM] | Vmax, thiacloprid hydroxylation [4, 5]
1 | O=[N+]([O-])NC1=NCCN1Cc1ccc(Cl)nc1 [imidacloprid] | no significant shift | 1.2 | 0.038 | 0.032 | much lower efficiency than exhibited for thiacloprid | much lower efficiency than exhibited for thiacloprid | much lower efficiency than exhibited for thiacloprid |  |  |  |  |  | 
2 | N#C/N=C1\SCCN1Cc1ccc(Cl)nc1 [thiacloprid] | 4.2 fold |  | 19.68 | 4.73 | highly efficient metabolizer | weak activity | weak activity | 3.92 | 607,8±5,48 pmol min-1 mg-1 | 5.65 | 44,31±1,01 pmol min-1 mg-1 | 17.8 | 3,92 ±0,08 pmol min-1 mg-1
